Results from US12564569B2, “Carboplatin complex and pharmaceutical preparation thereof” (ADVANCHL BIO[…] CENTER (SHANGHAI), priority 2019, dated 2026).

How the values were obtained:
[1] = tested on: supercoiled plasmid DNA; assay: Mixing with supercoiled plasmid DNA, electrophoresis; format: binding; details: electrophoresis after a period of time
[2] = Cytotoxicity experiments for antiviral application; format: cell-based
[3] = tested on: supercoiled plasmid (pcDNA) with or without T4 GP41 DNA helicase; assay: DNA binding test involving helicase (gel electrophoresis); format: biochemical; details: Test 1 vs Test 4; 0.1 mmol/L, 1 hour, 37° C.
Source text: In this experiment, the effect of a helicase on carboplatin 4.0 was verified by a DNA binding test involved by the helicase, including: using the supercoiled and linear plasmid DNA (Hr. pcDNA, which can be extracted in a conventional manner) as a template, changing the DNA conformation through reactions by combining with different platinum-based anticancer drugs, and then distinguishing different platinum drugs by differences in gel electrophoretograms. […]
The following samples (test numbers 1-5 and M) were analyzed under the above experimental conditions, and the addition of pcDNA, drugs, and helicases in each sample was shown as follows: • Test 1: pcDNA+Carboplatin+T4 • Test 2: pcDNA+Carboplatin 4.0+T4 • Test 3: pcDNA+Carboplatin 4.0 • Test 4: pcDNA+Carboplatin • Test 5: pcDNA Test M: Marker (Reference Standard)

[4] = tested on: linear DNA; assay: Binding assay with a linear DNA; details: in a certain period of time

## N.N.O=C([O-])C1(C(=O)[O-])CCC1.[Pt+2] [carboplatin]
[1]
  crosslinking with supercoiled plasmid DNA: crosslinks with the supercoiled plasmid DNA to form a adduct
[2]
  cytotoxicity evaluation for application in an antiviral aspect: hinders its application in the antiviral aspect
[3]
  effect of the helicase on DNA binding of the drug: no obvious effect
[4]
  cross-linking with linear DNA: quickly forms a cross-linked adduct with DNA
